In US8641948B2, “Method of making solid dispersions of highly crystalline therapeutic compounds” (Novartis AG, priority 2006, dated 2014):

Experiment: Stability of the crystalline therapeutic compound (heat, light, oxidation)
Type: physicochemical
Text: An example of a poorly water soluble therapeutic compound appropriate for the present invention is midostaurin which is a protein Kinase C inhibitor.

In the case of CO[C@@H]1[C@H](N(C)C(=O)c2ccccc2)C[C@H]2O[C@]1(C)n1c3ccccc3c3c4c(c5c6ccccc6n2c5c31)C(=O)NC4 [midostaurin], the “stability to light and oxidation” value is reported as “light-sensitive and oxidizes” and the thermal stability (at melting point of about 260° C.) is reported as “decomposes upon melting”.
